From patent publication US20250289786A1, “CHLORINATED MONOCARBONYL CURCUMIN COMPOUNDS, PREPARATION METHOD, AND APPLICATION” (Southwest Medical University, priority 2024, published 2025)

How the values were obtained:
[1] = Solubility detection of CAK01-CAK07; format: physicochemical
Description: The chlorinated monocarbonyl curcumin compounds CAK01-CAK07 prepared under the conditions of Example 1 were taken for nuclear magnetic resonance, mass spectrometry, solubility, and melting point detection.

[2] = test system: liver, heart, spleen, lung, and kidney tissues; assay: HE staining safety evaluation of mouse tissues; format: in vivo; settings: kidney of mice, in words
PC12 cells [3] = assay: Inhibition of corticosterone (CORT)-induced PC12 cell damage; format: cell-based, rat; settings: 24 h
[4] = test system: CUMS depression model mice; assay: Forced swimming test in CUMS depression model mice; format: in vivo, C57BL/6J mice; settings: for forced swimming test, depressive symptoms / immobility time: 14th day, in words; for immobility time in the forced swimming test: 28 days
Description: (§1) After one week of adaptive feeding, the newly purchased mice were divided into a blank group and CUMS model group. The mice in the blank group were not subjected to behavioral intervention and were fed normally. Mice in the model group were given 1-2 unpredictable behavioral stimuli every day. […] When the same stimulation is continuous, the stimulation method is changed to ensure that the same stimulation is not continuous, and the model construction period is 42 days.

PC12 cells [5] = assay: Inhibition of H2O2-induced oxidative damage in PC12 cells; format: cell-based, rat
Experimental: After 24 hours of incubation in the incubator, the relative proliferation rates of the cells were calculated according to the method under Section 2.1.

BV2 cells [6] = assay: NO release in LPS-induced BV2 cell stress; format: cell-based; settings: 1 μg/mL LPS; for NO release versus model group: 24 h, in words
Description: (§2) When the body is in a long-term stress and stress state, a large number of oxidizing substances and inflammatory factors accumulate in the body, causing depression and inducing depression-like symptoms. LPS is a pro-inflammatory substance, which can induce the increase of inflammatory factors, the accumulation of reactive oxygen species ROS and the release of NO in BV2 cells. The anti-inflammatory and antioxidant effects of drugs can be evaluated by establishing an LPS stress model.
NO detection: When BV2 cells grew to the logarithmic growth phase, they were inoculated in a 6-well plate at 1×10^6 cells/well and cultured for 24 h. Then the original medium was replaced with CAK06 fresh DMEM high glucose medium containing high (10 μM), medium (5 μM), and low (1 μM) concentrations, and three duplicate wells were set up in each group. After the cells were treated with compound CAK06 for 12 h, the supernatant of the culture medium was centrifuged and stained according to the instructions of the NO detection kit, and the absorbance was detected at a wavelength of 540 nm.

[7] = test system: CUMS depression model mice; assay: Sucrose preference test in CUMS depression model mice; format: in vivo, C57BL/6J mice
Description: as §1

PC12 cells [8] = assay: MTT toxicity (safety evaluation) on PC12 nerve cells; format: cell-based
Experimental: The toxicity of each drug to PC12 cells was determined by MTT assay. The principle of the MTT colorimetric method: there is succinate dehydrogenase in the mitochondria of living cells, which can make exogenous MTT become blue-purple crystal formazan insoluble in water, this phenomenon cannot be observed in dead cells. The blue-purple crystal formazan can be dissolved by DMSO, and the absorbance value is measured by a microplate reader at a wavelength of 490 nm, which in turn reflects the number of living cells. […] The operation method is as follows:
The cells were resuscitated with DMEM high glucose medium containing 10% fetal bovine serum and cultured in a 5% CO2 cell incubator at 37° C., when the cells grew to the logarithmic growth phase, they were inoculated into a 96-well plate and cultured for 24 hours, each well was added with 100 μL of each compound solution at the corresponding gradient concentration (60, 30, 15, 7.5, 3.75 μM), after incubation in the incubator for 24 h or 48 h, 20 μL of MTT was added to continue incubation for 4 h, the supernatant was discarded and 150 μL of DMSO was added to dissolve the blue-purple crystals, after shaking for 10 min, the cell viability was detected by a microplate reader, and classified according to the cytotoxicity standard. The relevant calculation formula is as follows: […]

[9] = test system: CUMS depression model mice; assay: Open field test in CUMS depression model mice; format: in vivo, C57BL/6J mice; settings: 28 days, model 327.22±161.39 cm
Description: as §1

[10] = test system: Nrf2, HO-1, BDNF, and TrkB in the hippocampus; assay: Western blot of hippocampal proteins in CUMS depression model mice; format: in vivo; settings: low dose, in words
BV2 cells [11] = assay: ROS detection (DCFH-DA) in LPS-induced BV2 cells; format: cell-based; settings: 10, 5 and 1 μM with LPS, in words
Description: as §2
ROS detection: The fluorescent dye probe DCFH-DA can freely pass through the BV2 cell membrane, and the dye entering the cell is enzymatically hydrolyzed to DCFH, at this time, it can no longer pass through the cell membrane. The intracellular ROS can oxidize DCFH to DCF with fluorescence, which can reflect the ROS content by detecting the fluorescence intensity of DCF. The specific operation is as follows: when BV2 cells grew to the logarithmic growth phase, they were inoculated in a 6-well plate at 1×10^6 cells/well and cultured for 24 h. […] After the cells were co-cultured with compound CAK06 for 12 h, the cells were stained according to the instructions of the ROS detection kit, and photographed and analyzed by an inverted fluorescence microscope.

For `COc1cc(/C=C2\CNC/C(=C\c3cc(Cl)c(O)c(OC)c3)C2=O)cc(Cl)c1O` [CAK06, 3,5-bis ((E)-3-chloro-4-hydroxy-5-methoxybenzylidene) piperidin-4-one], the solubility [1] was 171.77 mg/100 g, the “HE staining pathology of tissues” value [2] was “basically normal” and the “relative cell proliferation rate” value (PC12 cells [3]; 60 μM drug with 514.6 μM CORT) was 66.95±0.97%. The “effect on viability of CORT-damaged PC12 cells” value (PC12 cells [3]; 3.75-60 μM drug with 514.6 μM CORT, in words) was “time-dependent and concentration-dependent cell protection”, the “forced swimming test, depressive symptoms / immobility time” value ([4]; 10 mg/kg oral once a day) was “significant reduction in immobility time” and the “immobility time in the forced swimming test” value ([4]; 10 mg/kg oral once a day) was 114.86 ± 84.07 s. For the same molecule, the “forced swimming test, depressive symptoms / immobility time” value ([4]; 20 mg/kg oral once a day) was “stronger antidepressant effect”, the “immobility time in the forced swimming test” value ([4]; 20 mg/kg oral once a day) was 54.44 ± 53.38 s and the cell proliferation rate (PC12 cells [5]; 60 μM drug with 585.8 μM H2O2, 24 h) was 73.91±0.69%. The “effect on survival of H2O2-damaged PC12 cells” value (PC12 cells [5]; 3.75-60 μM drug, 24 h, in words) was “time-dependent and concentration-dependent cell protection”, the “absorbance (NO release)” value (BV2 cells [6]; 1 μM (low), 12 h, 540 nm, model 0.153, blank 0.080) was 0.145 and the “NO release versus model group” value (BV2 cells [6]; 1 μM (low)) was “no significant difference”. The “NO release versus model group” value (BV2 cells [6]; 5 μM (medium)) was “significantly improved”, the “NO release versus model group” value (BV2 cells [6]; 10 μM (high)) was “significantly improved” and the sucrose preference rate ([7]; 10 mg/kg oral once a day, 14th day, in words) was “failed to significantly increase the sucrose preference rate”. The sucrose preference rate ([7]; 10 mg/kg oral once a day, 28 days, model 61.36±2.18%) was 70.62±2.33%, the sucrose preference rate ([7]; 20 mg/kg oral once a day, 14th day, in words) was “significant increase” and the sucrose preference rate ([7]; 20 mg/kg oral once a day, 28 days, model 61.36±2.18%) was 77.42±2.77%. The “cytotoxicity to PC12 cells” value (PC12 cells [8]; 3.75-60 μM, 24 h and 48 h, in words) was “no significant cytotoxicity”, the “Rank (cytotoxicity standard) 24 h” value (PC12 cells [8]; PC12, 3.75 μM) was 0 and the “Relative growth rate (%) 24 h” value (PC12 cells [8]; PC12, 3.75 μM) was 98.50 ± 3.77%. The “Rank (cytotoxicity standard) 48 h” value (PC12 cells [8]; PC12, 3.75 μM) was 0, the “Relative growth rate (%) 48 h” value (PC12 cells [8]; PC12, 3.75 μM) was 100.05 ± 0.75% and the “Rank (cytotoxicity standard) 24 h” value (PC12 cells [8]; PC12, 7.5 μM) was 0. For the same molecule, the “Relative growth rate (%) 24 h” value (PC12 cells [8]; PC12, 7.5 μM) was 100.42 ± 2.85%, the “Rank (cytotoxicity standard) 48 h” value (PC12 cells [8]; PC12, 7.5 μM) was 1 and the “Relative growth rate (%) 48 h” value (PC12 cells [8]; PC12, 7.5 μM) was 92.97 ± 2.54%. For the same molecule, the “Rank (cytotoxicity standard) 24 h” value (PC12 cells [8]; PC12, 15 μM) was 1, the “Relative growth rate (%) 24 h” value (PC12 cells [8]; PC12, 15 μM) was 98.55 ± 4.12% and the “Rank (cytotoxicity standard) 48 h” value (PC12 cells [8]; PC12, 15 μM) was 1. For the same molecule, the “Relative growth rate (%) 48 h” value (PC12 cells [8]; PC12, 15 μM) was 88.82 ± 0.28%, the “Rank (cytotoxicity standard) 24 h” value (PC12 cells [8]; PC12, 30 μM) was 1 and the “Relative growth rate (%) 24 h” value (PC12 cells [8]; PC12, 30 μM) was 94.56 ± 2.82%. For the same molecule, the “Rank (cytotoxicity standard) 48 h” value (PC12 cells [8]; PC12, 30 μM) was 1, the “Relative growth rate (%) 48 h” value (PC12 cells [8]; PC12, 30 μM) was 93.60 ± 4.14% and the “Rank (cytotoxicity standard) 24 h” value (PC12 cells [8]; PC12, 60 μM) was 0. The “Relative growth rate (%) 24 h” value (PC12 cells [8]; PC12, 60 μM) was 114.78 ± 1.81%, the “Rank (cytotoxicity standard) 48 h” value (PC12 cells [8]; PC12, 60 μM) was 0 and the “Relative growth rate (%) 48 h” value (PC12 cells [8]; PC12, 60 μM) was 109.26 ± 4.07%. The “overall activity distance in the open field test” value ([9]; 10 mg/kg oral once a day) was 868.90±280.97 cm, the “overall activity distance in the open field test” value ([9]; 20 mg/kg oral once a day) was 1336.66±264.87 cm and the “expression of antioxidant-related proteins Nrf2 and HO-1” value [10] was “better expression than the Flu group”. The ROS fluorescence intensity (BV2 cells [11]) was “decreased in a concentration-dependent manner”.
